Among the data in US20150087673A1, “METHODS FOR USING AND BIOMARKERS FOR AMPK-ACTIVATING COMPOUNDS” (RIGEL PHARMACEUTICALS, INC., priority 2013, published 2015) are EC50 values, retold here.

In the assay the test system is AMPK. The experiment in a line: AMPK activation assay (enzyme-linked immunosorbent assay). Type of assay: cell-based. In outline:
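Activator screen performed per well-known kit methods.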
As for `COc1ccc(C(=O)C2CCN(C(=O)c3ccc(C(=O)Nc4ccc(Oc5ccc(C#N)cc5)nc4)cn3)CC2)cc1` [Compound 460, N-(6-(4-cyanophenoxy)pyridin-3-yl)-6-(4-(4-methoxybenzoyl)piperidine-1-carbonyl)nicotinamide], the concentration for a half-maximal effect (EC50) is < 0.5 µM.

As for `N#Cc1ccc(O[C@H]2CC[C@@H](NC(=O)c3ccc(C(=O)N4CCC(Oc5ccc(C(F)(F)F)cc5)CC4)cn3)CC2)cc1` [Compound 190, N-((cis)-4-(4-cyanophenoxy)cyclohexyl)-5-(4-(4-(trifluoromethyl)phenoxy)piperidine-1-carbonyl)picolinamide], the EC50 is < 0.5 µM. The same measure for `N#Cc1ccc(OC2CCN(C(=O)c3ccc(C(=O)NC4CCN(c5ccc(F)cc5)CC4)cn3)CC2)cc1` [Compound 422, 6-(4-(4-cyanophenoxy)piperidine-1-carbonyl)-N-(1-(4-fluorophenyl)piperidin-4-yl)nicotinamide]: 1 to 5 µM; for `O=C(NCc1ccccc1)c1ccc(C(=O)N2CCN(Cc3ccccc3)CC2)cn1` [Compound 116, N-benzyl-5-(4-benzylpiperazine-1-carbonyl)picolinamide]: 1 to 5 µM. Under `CS(=O)(=O)c1ccc(OC2CCN(C(=O)c3ccc(C(=O)Nc4ccc(Oc5ccc(F)cc5)nc4)nc3)CC2)cc1` [Compound 231, N-(6-(4-fluorophenoxy)pyridin-3-yl)-5-(4-(4-(methylsulfonyl)phenoxy)piperidine-1-carbonyl)picolinamide] stands < 0.5 µM; under `CCOC(=O)C(c1ccccc1)N1CCC(NC(=O)c2ccc(C(=O)N3CCN(Cc4ccc(F)cc4)CC3)cn2)CC1` (centres unmarked) [Compound 98, ethyl 2-(4-(5-(4-(4-fluorobenzyl)piperazine-1-carbonyl)picolinamido)piperidin-1-yl)-2-phenylacetate], 1 to 5 µM; under `O=C(Nc1ccc(C(=O)N2CCN(Cc3ccc(F)cc3)CC2)cn1)c1ccc(Oc2ccc(F)cc2)nc1` [Compound 177, N-(5-(4-(4-fluorobenzyl)piperazine-1-carbonyl)pyridin-2-yl)-6-(4-fluorophenoxy)nicotinamide], 1 to 5 µM. `N#Cc1ccc(OC2CCN(C(=O)c3ccc(C(=O)NC4CCN(Cc5ccc(N6CCOCC6)cc5)CC4)cn3)CC2)cc1` [Compound 337, 6-(4-(4-cyanophenoxy)piperidine-1-carbonyl)-N-(1-(4-morpholinobenzyl)piperidin-4-yl)nicotinamide]: the EC50 was < 0.5 µM.

As for `N#Cc1ccc(CN2CCC(NC(=O)c3ccc(Nc4ccc(-c5ccccc5)cc4)cn3)CC2)cc1` [Compound 109, 5-(biphenyl-4-ylamino)-N-(1-(4-cyanobenzyl)piperidin-4-yl)picolinamide], the EC50 is 5 to 10 µM. Under `N#Cc1ccc(CN2CC[C@@H](NC(=O)c3ccc(C(=O)N4CCC(Oc5ccc(S(=O)(=O)C(F)(F)F)cc5)CC4)nc3)[C@H](F)C2)cc1` (relative stereo) [Compound 451, N-((trans)-1-(4-cyanobenzyl)-3-fluoropiperidin-4-yl)-6-(4-(4-(trifluoromethylsulfonyl)phenoxy)piperidine-1-carbonyl)nicotinamide] stands < 0.5 µM. `N#Cc1ccc(CN2CCC(NC(=O)c3ccc(C(=O)N4CCCC(Oc5ccc(C#N)cc5)C4)cn3)CC2)cc1` (centres unmarked) [Compound 137, N-(1-(4-cyanobenzyl)piperidin-4-yl)-5-(3-(4-cyanophenoxy)piperidine-1-carbonyl)picolinamide]: the EC50 was < 0.5 µM. Under `COc1ccc(C(=O)C2CCN(C(=O)c3ccc(C(=O)Nc4ccc(S(=O)(=O)c5ccc(F)cc5)nc4)cn3)CC2)cc1` [Compound 467, N-(6-(4-fluorophenylsulfonyl)pyridin-3-yl)-6-(4-(4-methoxybenzoyl)piperidine-1-carbonyl)nicotinamide] stands 1 to 5 µM; under `N#Cc1ccc(-c2ccc(NC(=O)c3ccc(C(=O)N4CCN(Cc5ccc(F)cc5)CC4)cn3)cc2)cc1` [Compound 24, N-(4-(4-cyanophenyl)phenyl)-5-(4-(4-fluorobenzyl)piperazine-1-carbonyl)picolinamide], < 0.5 µM. The same measure for `O=C(Nc1ccc(-c2cccnc2)cc1)c1ccc(C(=O)N2CCN(Cc3ccc(F)cc3)CC2)cn1` [Compound 61, 5-(4-(4-fluorobenzyl)piperazine-1-carbonyl)-N-(4-(pyridine-3-yl)phenyl)picolinamide]: < 0.5 µM; for `N#Cc1ccc(OC2CN(C(=O)c3ccc(C(=O)Nc4ccc(Oc5ccc(F)cc5)nc4)nc3)C2)cc1` [Compound 210, 5-(3-(4-cyanophenoxy)azetidine-1-carbonyl)-N-(6-(4-fluorophenoxy)pyridin-3-yl)picolinamide]: > 10 µM; for `N#Cc1cccc(-c2ccc(NC(=O)c3ccc(C(=O)N4CCN(Cc5ccc(F)cc5)CC4)cn3)cc2)c1` [Compound 32, N-(4-(3-cyanophenyl)phenyl)-5-(4-(4-fluorobenzyl)piperazine-1-carbonyl)picolinamide]: 0.5 to 1 µM. The same measure for `N#Cc1ccc(O[C@H]2CC[C@@H](NC(=O)c3ccc(C(=O)N4CCN(Cc5ccc(F)cc5)CC4)nc3)CC2)cc1` [Compound 332, N-((cis)-4-(4-cyanophenoxy)cyclohexyl)-6-(4-(4-fluorobenzyl)piperazine-1-carbonyl)nicotinamide]: < 0.5 µM; for `O=C(NC1CCN(Cc2ccc(F)cc2)CC1)c1ccc(C(=O)N2CCC(Oc3ccc(C(F)(F)F)cc3)CC2)cn1` [Compound 179, N-(1-(4-fluorobenzyl)piperidin-4-yl)-5-(4-(4-(trifluoromethyl)phenoxy)piperidine-1-carbonyl)picolinamide]: < 0.5 µM. Take `N#Cc1ccc(CN2CCC(NC(=O)c3ccc(C(=O)N4CCC(S(=O)(=O)c5ccc(F)cc5)CC4)cn3)CC2)cc1` [Compound 262, N-(1-(4-cyanobenzyl)piperidin-4-yl)-5-(4-(4-fluorophenylsulfonyl)piperidine-1-carbonyl)picolinamide]: the EC50 is < 0.5 µM. Under `COc1ccc(CN2CCC(NC(=O)c3ccc(C(=O)N4CCC(C(=O)c5ccc(F)cc5F)CC4)cn3)CC2)cc1` [Compound 331, 5-(4-(2,4-difluorobenzoyl)piperidine-1-carbonyl)-N-(1-(4-methoxybenzyl)piperidin-4-yl) picolinamide] stands < 0.5 µM; under `COc1ccc(CN2CCC(NC(=O)c3ccc(C(=O)N4CCC(Oc5cccc(NC(C)=O)c5)CC4)nc3)CC2)cc1` [Compound 412, 6-(4-(3-acetamidophenoxy)piperidine-1-carbonyl)-N-(1-(4-methoxybenzyl)piperidin-4-yl)nicotinamide], 1 to 5 µM.

Turning to `N#Cc1ccc(CN2CCC(NC(=O)c3ccc(C(=O)N4CCN(C(=O)c5ccc(F)cc5)CC4)cn3)CC2)cc1` [Compound 76, N-(1-(4-cyanobenzyl)piperidin-4-yl)-5-(4-(4-fluorobenzoyl)piperazine-1-carbonyl)picolinamide], the EC50 was < 0.5 µM.

Consider `O=C(NC1CCN(Cc2ccc(F)cc2)CC1)c1ccc(C(=O)N2CCC(C(=O)c3ccc(-n4cccn4)cc3)CC2)nc1` [Compound 392, 6-(4-(4-(1H-pyrazol-1-yl)benzoyl)piperidine-1-carbonyl)-N-(1-(4-fluorobenzyl)piperidin-4-yl)nicotinamide], for which the EC50 is < 0.5 µM. As to `COc1ccc(C(=O)C2CCN(C(=O)c3ccc(C(=O)N(C)C4CCN(Cc5ccc(C#N)cc5)CC4)cn3)CC2)cc1` [Compound 482, N-(1-(4-cyanobenzyl)piperidin-4-yl)-6-(4-(4-methoxybenzoyl)piperidine-1-carbonyl)-N-methylnicotinamide], the EC50 is < 0.5 µM. Under `N#Cc1ccc(CN2CCC(NC(=O)c3ccc(N4CCC(C(=O)c5ccc(Cl)cc5)CC4)cn3)CC2)cc1` [Compound 266, 5-(4-(4-chlorobenzoyl)piperidin-1-yl)-N-(1-(4-cyanobenzyl)piperidin-4-yl)picolinamide] stands < 0.5 µM. The same measure for `N#Cc1ccc(CN2CCc3ccc(NC(=O)c4ccc(C(=O)NCc5ccc(F)cc5)cn4)cc3C2)cc1` [Compound 144, N2-(2-(4-cyanobenzyl)-1,2,3,4-tetrahydroisoquinolin-7-yl)-N5-(4-fluorobenzyl)pyridine-2,5-dicarboxamide]: 0.5 to 1 µM; for `COc1ccc(CN2CCC(NC(=O)c3ccc(C(=O)N4CCC(Oc5ccc(F)cc5)CC4)cn3)CC2)cc1` [Compound 161, 5-(4-(4-fluorophenoxy)piperidine-1-carbonyl)-N-(1-(4-methoxybenzyl)piperidin-4-yl)picolinamide]: < 0.5 µM; for `O=C(Nc1ccc(Oc2ccc(F)cc2)nc1)c1ccc(C(=O)N2CCC(C(=O)c3ccc(F)cc3F)CC2)cn1` [Compound 342, 5-(4-(2,4-difluorobenzoyl)piperidine-1-carbonyl)-N-(6-(4-fluorophenoxy)pyridin-3-yl)picolinamide]: < 0.5 µM.

Regarding `N#Cc1ccc(CN2CCC(NC(=O)c3ccc(C(=O)N4CCN(c5ccc(C(F)(F)F)cc5)CC4)cn3)CC2)cc1` [Compound 339, N-(1-(4-cyanobenzyl)piperidin-4-yl)-5-(4-(4-(trifluoromethyl)phenyl)piperazine-1-carbonyl)picolinamide], the EC50 is < 0.5 µM. For `COc1ccc(OC2CCN(C(=O)c3ccc(C(=O)N[C@H]4CC[C@@H](Oc5ccc(C#N)cc5)CC4)nc3)CC2)cc1` [Compound 174, N-((cis)-4-(4-cyanophenoxy)cyclohexyl)-5-(4-(4-methoxyphenoxy)piperidine-1-carbonyl)picolinamide], the EC50 is < 0.5 µM. The same measure for `COc1ccc(C(=O)C2CCN(C(=O)c3ccc(C(=O)N[C@@H]4CCN(Cc5ccc(OC(F)(F)F)cc5)C[C@@H]4F)cn3)CC2)cc1` (relative stereo) [Compound 461, N-((cis)-3-fluoro-1-(4-(trifluoromethoxy)benzyl)piperidin-4-yl)-6-(4-(4-methoxybenzoyl)piperidine-1-carbonyl)nicotinamide]: < 0.5 µM; for `COc1ccc(C(=O)C2CCN(C(=O)c3ccc(C(=O)NC4CCN(Cc5cc(F)cc(F)c5)CC4)cn3)CC2)cc1` [Compound 310, N-(1-(3,5-difluorobenzyl)piperidin-4-yl)-6-(4-(4-methoxybenzoyl)piperidine-1-carbonyl)nicotinamide]: < 0.5 µM.
